Data published in DBAASP.
Values after ≈ are worked out from the molar mass of the structure shown.

Legend:
Experiment in all cases: ≥ marks a high value that may be exact or a test limit, other limits are often not marked, values filed in µg/mL are converted to µM
[1] = system: Enterococcus faecalis ATCC 29212
[2] = system: Enterococcus faecalis W61950
[3] = system: Escherichia coli ESBL 63103
[4] = system: Stenotrophomonas maltophilia ATCC 13637
[5] = system: Staphylococcus aureus C623
[6] = system: Pseudomonas aeruginosa H1027
[7] = system: Enterococcus faecium t62764
[8] = system: Pseudomonas aeruginosa 198
[9] = system: Pseudomonas aeruginosa PAO1 H103
[10] = system: Escherichia coli ESBL 64771
[11] = system: Pseudomonas aeruginosa 213
[12] = system: Klebsiella pneumoniae ESBL 61962
[13] = system: Enterococcus faecalis f43559
Pseudomonas aeruginosa 9 = system: Pseudomonas aeruginosa 9
[14] = system: Pseudomonas aeruginosa H1030
[15] = system: Pseudomonas aeruginosa LES400
[16] = system: Enterobacter cloacae 218R
[17] = system: Staphylococcus aureus ATCC 25923
[18] = system: Enterococcus faecium mic80
[19] = system: Klebsiella pneumoniae ESBL 63575
[20] = system: Staphylococcus epidermidis P1389
[21] = system: Micrococcus luteus AB93113
[22] = system: Staphylococcus aureus P1386
[23] = system: Pseudomonas aeruginosa AB93066
Escherichia coli AB94012 = system: Escherichia coli AB94012
[24] = system: Staphylococcus aureus AB94004
[25] = system: Staphylococcus aureus P1369
[26] = system: Bacillus subtilis AB91021
[27] = system: Staphylococcus aureus P1374
[28] = system: Staphylococcus epidermidis P1111
[29] = system: Bacillus thuringiensis AB92037
[30] = system: Escherichia coli ATCC 25922
[31] = system: Batrachochytrium dendrobatidis
Staphylococcus aureus = system: Staphylococcus aureus
[32] = system: Klebsiella pneumoniae ST258
Escherichia coli B = system: Escherichia coli B
Escherichia coli ST131 = system: Escherichia coli ST131
Bacillus subtilis 168 = system: Bacillus subtilis 168
Pseudomonas aeruginosa = system: Pseudomonas aeruginosa
[33] = system: Bacillus subtilis ATCC 6633
[34] = system: Staphylococcus epidermidis ATCC 12228
[35] = system: Salmonella enterica subsp. enterica serovar Typhimurium ATCC 14028
[36] = system: Staphylococcus aureus ATCC 6538P
[37] = system: Staphylococcus aureus TK784
[38] = system: Micrococcus luteus ATCC 10240
[39] = system: Klebsiella pneumoniae ATCC 10031
[40] = system: Shigella dysenteriae ATCC 9752
[41] = system: Pseudomonas aeruginosa ATCC 27853

CC[C@H](C)[C@H](NC(=O)[C@H](C)N)C(=O)N[C@@H](CCCN=C(N)N)C(=O)N[C@@H](CCCN=C(N)N)C(=O)N[C@@H](Cc1c[nH]c2ccccc12)C(=O)N[C@@H](CCCN=C(N)N)C(=O)N[C@H](C(=O)N[C@@H](CCCN=C(N)N)C(=O)N[C@@H](CCCCN)C(=O)O)[C@@H](C)CC [AIRRWRIRK]
MIC [1]: > 137 µM
MIC [2]: ≥ 137 µM
MIC [3]: ≥ 68.6 µM
MIC [4]: ≥ 68.6 µM
MIC [5]: ≥ 34.3 µM
MIC [6]: ≥ 137 µM
MIC [7]: 8.77 µM (≈ 11 µg/mL)
MIC [8]: ≥ 137 µM
MIC [9]: ≥ 137 µM
MIC [10]: ≥ 68.6 µM
MIC [11]: ≥ 137 µM
MIC [12]: ≥ 137 µM
MIC [13]: ≥ 137 µM
MIC (Pseudomonas aeruginosa 9): ≥ 137 µM
MIC [14]: ≥ 137 µM
MIC [15]: ≥ 137 µM
MIC [16]: ≥ 68.6 µM
MIC [17]: 34.3 µM (≈ 43 µg/mL)
MIC [18]: ≥ 68.6 µM
MIC [19]: ≥ 137 µM

CC[C@H](C)[C@H](NC(=O)[C@H](C)NC(=O)[C@H](CO)NC(=O)[C@@H](NC(=O)[C@H](CC(C)C)NC(=O)CNC(=O)CNC(=O)[C@@H](NC(=O)[C@H](CC(C)C)NC(=O)[C@H](CO)NC(=O)[C@@H]1CCCN1C(=O)[C@H](CC(C)C)NC(=O)[C@H](CC(C)C)NC(=O)[C@H](CO)NC(=O)[C@H](Cc1ccccc1)NC(=O)[C@@H](N)Cc1ccccc1)[C@@H](C)CC)C(C)C)C(=O)N[C@@H](CCCCN)C(N)=O [FFSLLPSLIGGLVSAIK]
MIC [20]: 28.4 µM (≈ 50 µg/mL)
MIC [21]: 11.3 µM (≈ 20 µg/mL)
MIC [22]: 28.4 µM (≈ 50 µg/mL)
MIC [23]: ≥ 56.7 µM
MIC (Escherichia coli AB94012): ≥ 56.7 µM
MIC [24]: 11.3 µM (≈ 20 µg/mL)
MIC [25]: 28.4 µM (≈ 50 µg/mL)
MIC [26]: 28.4 µM (≈ 50 µg/mL)
MIC [27]: 28.4 µM (≈ 50 µg/mL)
MIC [28]: 11.3 µM (≈ 20 µg/mL)
MIC [29]: 28.4 µM (≈ 50 µg/mL)

CC[C@H](C)[C@H](NC(=O)CN)C(=O)N[C@@H](CCSC)C(=O)N[C@@H](CC(=O)O)C(=O)N[C@@H](CO)C(=O)N[C@H](C(=O)N[C@@H](CCCCN)C(=O)NCC(=O)N[C@@H](CC(C)C)C(=O)N[C@@H](C)C(=O)N[C@@H](CCCCN)C(=O)N[C@@H](CC(N)=O)C(=O)N[C@@H](CC(C)C)C(=O)N[C@@H](C)C(=O)NCC(=O)N[C@@H](CCCCN)C(=O)N[C@@H](CC(C)C)C(=O)N[C@@H](CC(C)C)C(=O)N[C@@H](CC(=O)O)C(=O)N[C@@H](CO)C(=O)N[C@@H](CC(C)C)C(=O)N[C@@H](CCCCN)C(=O)N[C@H]1CSSC[C@@H](C(=O)O)NC(=O)CNC(=O)[C@H]([C@@H](C)O)NC(=O)[C@H]([C@@H](C)CC)NC(=O)[C@H](CCCCN)NC1=O)C(C)C [GIMDSVKGLAKNLAGKLLDSLKCKITGC]
MIC [30]: 17 µM (≈ 48.9 µg/mL)
MIC [31]: 12.5 µM (≈ 35.9 µg/mL)

CC[C@H](C)[C@H](NC(=O)[C@H](CC(C)C)NC(=O)[C@H](CCCCN)NC(=O)CNC(=O)[C@H](CC(C)C)NC(=O)[C@@H](NC(=O)[C@H](CCCCN)NC(=O)[C@H](CCCCN)NC(=O)[C@H](Cc1c[nH]c2ccccc12)NC(=O)[C@H](CCCCN)NC(=O)CN)[C@@H](C)CC)C(=O)N[C@@H](CCCN=C(N)N)C(N)=O [GKWKKILGKLIR]
MIC [30]: 2 µM (≈ 2.88 µg/mL)
MIC (Staphylococcus aureus): 60 µM (≈ 86.3 µg/mL)
MIC [32]: ≥ 32 µM
MIC (Escherichia coli B): 1.8 µM (≈ 2.59 µg/mL)
MIC (Escherichia coli ST131): 2 µM (≈ 2.88 µg/mL)
MIC (Bacillus subtilis 168): 1.3 µM (≈ 1.87 µg/mL)
MIC (Pseudomonas aeruginosa): 14.2 µM (≈ 20.4 µg/mL)

CC(C)C[C@H](NC(=O)[C@H](CC(C)C)NC(=O)[C@H](CCCCN)NC(=O)[C@H](CCCCN)NC(=O)[C@H](CC(C)C)NC(=O)[C@H](Cc1c[nH]c2ccccc12)NC(=O)[C@H](CCCCN)NC(=O)[C@H](CC(C)C)NC(=O)[C@@H](N)CC(C)C)C(=O)N[C@@H](CCCCN)C(=O)N[C@@H](CCCCN)C(N)=O [LLKWLKKLLKK]
MIC [33]: 1.42 µM (≈ 2 µg/mL)
MIC [30]: 2.84 µM (≈ 4 µg/mL)
MIC [34]: 1.42 µM (≈ 2 µg/mL)
MIC [35]: 2.84 µM (≈ 4 µg/mL)
MIC [36]: 1.42 µM (≈ 2 µg/mL)
MIC [37]: 11.3 µM (≈ 16 µg/mL)
MIC [38]: 2.84 µM (≈ 4 µg/mL)
MIC [39]: 2.84 µM (≈ 4 µg/mL)
MIC [40]: 1.42 µM (≈ 2 µg/mL)
MIC [41]: 2.84 µM (≈ 4 µg/mL)
